For five molecules, IC50 and Ki results are on record in US20250313572A1, “MACROCYCLIC MCL-1 INHIBITORS AND METHODS OF USE” (AbbVie Inc., priority 2017, published 2025).

The structures appear in SMILES notation. Like-named read-outs stand apart in the source and are kept apart here.

Assay [1] concerns NCI-H929 human multiple myeloma tumor cell line. The assay is described as follows: NCI-H929 cell viability assay (CellTiter-Glo, 24 hours). The assay is classed as cell-based. The conditions noted are these: Homo sapiens, NCI-H929, 24 h, read-out: H929 Viability IC50 (μM, 10% FBS), 10% FBS, 24 hours of compound treatment.
In assay [2] the test system is AMO-1 human multiple myeloma tumor cell line. Kind of assay: AMO-1 cell viability assay (CellTiter-Glo, 24 hours). The assay is classed as cell-based. The conditions noted are these: Homo sapiens, AMO1, 24 h, read-out: AMO-1 Viability IC50 (μM, 10% FBS), 10% FBS, 24 hours of compound treatment.
The target in assay [3] is GST-MCL-1 (Homo sapiens, UniProt Q07820). The assay is described as follows: TR-FRET MCL-1 binding assay (competition with probe F-Bak). A digest of the protocol:
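Test compounds, 11 three-fold dilutions from 25 μM final, incubated 2 hours at room temperature with GST-MCL-1, F-Bak probe and Tb-anti-GST antibody. TR-FRET read at 340/35 nm excitation with 520/525 and 495/510 nm emission. Run without human serum and with 10% HS.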

The mark [4] stands for this setting: MCL-1 Binding Ki (nM, 10% HS), in the presence of 10% HS (human serum).
[5] abbreviates: without HS, read-out: MCL-1 Binding Ki.

Chain of GST-MCL-1 (Q07820 whole entry): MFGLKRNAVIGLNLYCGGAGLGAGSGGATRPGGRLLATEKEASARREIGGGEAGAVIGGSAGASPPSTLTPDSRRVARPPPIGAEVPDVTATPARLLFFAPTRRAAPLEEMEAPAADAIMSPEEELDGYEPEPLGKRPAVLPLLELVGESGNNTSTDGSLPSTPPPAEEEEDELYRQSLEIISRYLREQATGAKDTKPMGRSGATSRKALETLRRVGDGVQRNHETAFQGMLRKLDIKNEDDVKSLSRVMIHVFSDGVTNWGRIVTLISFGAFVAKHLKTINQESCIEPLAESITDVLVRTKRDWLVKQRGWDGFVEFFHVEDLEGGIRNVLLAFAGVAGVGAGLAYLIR

`COCCOCCOCCOc1ccc(-c2nccc(COc3ccc4cc3C[C@H](C(=O)O)Oc3ncnc5sc(-c6ccc(F)cc6)c(c35)-c3c(C)c(Cl)c(c(Cl)c3C)O[C@H](CN3CCN(C)CC3)CO4)n2)cc1` [Example 16, (7R,16R)-19,23-dichloro-1-(4-fluorophenyl)-10-{[2-(4-{2-[2-(2-methoxyethoxy)ethoxy]ethoxy}phenyl)pyrimidin-4-yl]methoxy}-20,22-dimethyl-16-[(4-methylpiperazin-1-yl)methyl]-7,8,15,16-tetrahydro-18,21-etheno-13,9-(metheno)-6,14,17-trioxa-2-thia-3,5-diazacyclononadeca[1,2,3-cd]indene-7-carboxylic Acid]: the IC50 amounted to 0.000347 µM in assay [1] and 0.000177 µM in assay [2]. In addition, the figures for the Ki in assay [3] (setting [4]) and in assay [3] (setting [5]) were 0.359 nM and 0.028 nM, respectively.
Regarding `Cc1c(Cl)c2c(Cl)c(C)c1-c1c(-c3ccc(F)cc3)sc3ncnc(c13)O[C@@H](C(=O)O)Cc1cc(ccc1OCc1ccnc(-c3ccc(CCC(=O)O)cc3)n1)OC[C@@H](CN1CCN(C)CC1)O2` [Example 20, (7R,16R)-10-({2-[4-(2-carboxyethyl)phenyl]pyrimidin-4-yl}methoxy)-19,23-dichloro-1-(4-fluorophenyl)-20,22-dimethyl-16-[(4-methylpiperazin-1-yl)methyl]-7,8,15,16-tetrahydro-18,21-etheno-13,9-(metheno)-6,14,17-trioxa-2-thia-3,5-diazacyclononadeca[1,2,3-cd]indene-7-carboxylic Acid], the IC50 in assay [1] is 0.00804 µM; in assay [2], 0.00425 µM. Besides, the Ki in assay [3] (setting [4]) was found to be 0.165 nM; in assay [3] (setting [5]), 0.007 nM.
As for `Cc1c(Cl)c2c(Cl)c(C)c1-c1c(-c3ccc(F)cc3)sc3ncnc(c13)O[C@@H](C(=O)O)Cc1cc(ccc1OCc1ccnc(-c3ccc(OC[C@H](O)CO)cc3)n1)OC[C@@H](CN1CCN(C)CC1)O2` [Example 22, (7R,16R)-19,23-dichloro-10-[(2-{4-[(2R)-2,3-dihydroxypropoxy]phenyl}pyrimidin-4-yl)methoxy]-1-(4-fluorophenyl)-20,22-dimethyl-16-[(4-methylpiperazin-1-yl)methyl]-7,8,15,16-tetrahydro-18,21-etheno-13,9-(metheno)-6,14,17-trioxa-2-thia-3,5-diazacyclononadeca[1,2,3-cd]indene-7-carboxylic Acid], the figures for the IC50 in assay [1] and in assay [2] were 0.0018 µM and 0.00133 µM, respectively. The Ki stood at 0.214 nM in assay [3] (setting [4]) and 0.015 nM in assay [3] (setting [5]).
For `Cc1c(Cl)c2c(Cl)c(C)c1-c1c(-c3ccc(F)cc3)sc3ncnc(c13)O[C@@H](C(=O)O)Cc1cc(ccc1OCc1ccnc(-c3ccccc3OC[C@H](O)CO)n1)OC[C@@H](CN1CCN(C)CC1)O2` [Example 23, (7R,16R)-19,23-dichloro-10-[(2-{2-[(2R)-2,3-dihydroxypropoxy]phenyl}pyrimidin-4-yl)methoxy]-1-(4-fluorophenyl)-20,22-dimethyl-16-[(4-methylpiperazin-1-yl)methyl]-7,8,15,16-tetrahydro-18,21-etheno-13,9-(metheno)-6,14,17-trioxa-2-thia-3,5-diazacyclononadeca[1,2,3-cd]indene-7-carboxylic Acid], the figures for the IC50 in assay [1] and in assay [2] were 0.00389 µM and 0.00222 µM, respectively. Besides, the values for the inhibitory constant (Ki) in assay [3] (setting [4]) and in assay [3] (setting [5]) were 0.238 nM and 0.018 nM, respectively.
In the same order, the values of `Cc1c(Cl)c2c(Cl)c(C)c1-c1c(-c3ccc(F)cc3)sc3ncnc(c13)O[C@@H](C(=O)O)Cc1cc(ccc1OCc1ccnc(N3CCP(C)(=O)CC3)n1)OC[C@@H](CN1CCN(C)CC1)O2` [Example 25, (7R,16R)-19,23-dichloro-1-(4-fluorophenyl)-20,22-dimethyl-10-{[2-(4-methyl-4-oxo-1,4λ^5-azaphosphinan-1-yl)pyrimidin-4-yl]methoxy}-16-[(4-methylpiperazin-1-yl)methyl]-7,8,15,16-tetrahydro-18,21-etheno-13,9-(metheno)-6,14,17-trioxa-2-thia-3,5-diazacyclononadeca[1,2,3-cd]indene-7-carboxylic Acid] are 0.0808 µM, 0.0727 µM, 5.7 nM and 0.844 nM.
